# Source: patent US20250147039A1, “Compounds for complexation of rare earth elements and/or s-, p-, d- block metals, their coordination compounds, peptide conjugates, method of their preparation and use thereof” (USTAV ORGANICKE CHEMIE A BIOCHEMIE AV CR V.V.I., priority 2021, published 2025)
# What was measured:
# Format in all cases: physicochemical
# [1] = Dissociation of chelates in aq. 0.1M HCl at 80° C. (acid decomplexation kinetic inertness) (Chart 19)
# [2] = Relaxivities of Gd^III chelates, inversion recovery pulse sequence on relaxometer (0.5 T) (Chart 15); details: 40.0° C., 1.0 mM in aq. MOPS/NaOH buffer, pH 7.0
# [3] = Dissociation of chelates in aq. 0.1M HCl at RT (acid decomplexation kinetic inertness) (Chart 20)
# [4] = Dissociation of chelates in aq. 6.0M HCl at 80° C. (acid decomplexation kinetic inertness) (Chart 17)
# [5] = Dissociation of chelates in aq. 1.0M HCl at 80° C. (acid decomplexation kinetic inertness) (Chart 18)
# [6] = Formation of 1,5-cz-[Ln(Lig)] from Lig and Ln^III ions (metal dependent click-zip), MES/NaOH buffer pH 5.2, analytical HPLC (Chart 3)
# [7] = Formation of 1,5-cz-[Ln(Lig)] from 1,5-cz-Lig (metal dependent direct complexation) (Chart 8); details: pH 7.0
# [8] = Formation of 1,5-cz-[Ln(Lig)] from 1,5-cz-Lig (metal dependent direct complexation), RT and 80° C. (Chart 9); details: pH 7.0; for conversion to 1,5-cz-[Ln(Lig)] from 1,5-cz-Lig, Bi^III: ~4% DMSO
smiles,measurement,setting,value
O=C1C[N@@]2CC[N@]3CC[N@@](CC[N@](CC2)Cc2cccc(n2)-c2cnnn2Cc2cc(-c4ccccc4)cc(n2)C3)CC(=O)[O][Gd][O]1 [TD527],fraction of intact chelate,[1]; 1 month,82%
same,fraction of intact chelate,[1]; 1 week,95%
same,fraction of intact chelate,[1]; 1 hour,100%
same,fraction of intact chelate,[1]; 1 day,99%
same,relaxivity,[2],1.48 mM⁻¹ s⁻¹
same,fraction of intact chelate,[3]; 1 month,100%
same,fraction of intact chelate,[3]; 1 week,100%
same,fraction of intact chelate,[3]; 1 hour,100%
same,fraction of intact chelate,[3]; 1 day,100%
same,fraction of intact chelate,[4]; 1 month,0%
same,fraction of intact chelate,[4]; 1 week,0%
same,fraction of intact chelate,[4]; 1 hour,2%
same,fraction of intact chelate,[4]; 1 day,0%
same,fraction of intact chelate,[5]; 1 month,0%
same,fraction of intact chelate,[5]; 1 week,1%
same,fraction of intact chelate,[5]; 1 hour,98%
same,fraction of intact chelate,[5]; 1 day,58%
[N-]=[N+]=NCc1cc(-c2ccc(C(=O)O)cc2)cc(CN2CCN(CC(=O)O)CCN(Cc3cccc(C#CCN)n3)CCN(CC(=O)O)CC2)n1 [TD750],"conversion to 1,5-cz-[Ln(Lig)], Gd^III",[6]; after 1 hour at 80° C. (A),3%
same,"conversion to 1,5-cz-[Ln(Lig)], Gd^III",[6]; after 18 hours at 80° C. (B),9%
same,"conversion to 1,5-cz-[Ln(Lig)], Lu^III",[6]; after 1 hour at 80° C. (A),19%
same,"conversion to 1,5-cz-[Ln(Lig)], Lu^III",[6]; after 18 hours at 80° C. (B),71%
O=C(O)CN1CC[N@]2CCN(CC(=O)O)CC[N@@](CC1)Cc1cccc(n1)-c1cnnn1Cc1cc(-c3ccccc3)cc(n1)C2 [TD650],"conversion to 1,5-cz-[Ln(Lig)] from 1,5-cz-Lig, Ce^III",[7]; A: 1 hour at 80° C.,0%
same,"conversion to 1,5-cz-[Ln(Lig)] from 1,5-cz-Lig, Dy^III",[7]; A: 1 hour at 80° C.,0%
same,"conversion to 1,5-cz-[Ln(Lig)] from 1,5-cz-Lig, Er^III",[7]; A: 1 hour at 80° C.,0%
same,"conversion to 1,5-cz-[Ln(Lig)] from 1,5-cz-Lig, Eu^III",[7]; A: 1 hour at 80° C.,0%
same,"conversion to 1,5-cz-[Ln(Lig)] from 1,5-cz-Lig, Gd^III",[7]; A: 1 hour at 80° C.,0%
same,"conversion to 1,5-cz-[Ln(Lig)] from 1,5-cz-Lig, Ho^III",[7]; A: 1 hour at 80° C.,0%
same,"conversion to 1,5-cz-[Ln(Lig)] from 1,5-cz-Lig, La^III",[7]; A: 1 hour at 80° C.,0%
same,"conversion to 1,5-cz-[Ln(Lig)] from 1,5-cz-Lig, Lu^III",[7]; A: 1 hour at 80° C.,0%
same,"conversion to 1,5-cz-[Ln(Lig)] from 1,5-cz-Lig, Nd^III",[7]; A: 1 hour at 80° C.,0%
same,"conversion to 1,5-cz-[Ln(Lig)] from 1,5-cz-Lig, Pr^III",[7]; A: 1 hour at 80° C.,0%
same,"conversion to 1,5-cz-[Ln(Lig)] from 1,5-cz-Lig, Sm^III",[7]; A: 1 hour at 80° C.,0%
same,"conversion to 1,5-cz-[Ln(Lig)] from 1,5-cz-Lig, Tb^III",[7]; A: 1 hour at 80° C.,0%
same,"conversion to 1,5-cz-[Ln(Lig)] from 1,5-cz-Lig, Tm^III",[7]; A: 1 hour at 80° C.,0%
same,"conversion to 1,5-cz-[Ln(Lig)] from 1,5-cz-Lig, Yb^III",[7]; A: 1 hour at 80° C.,0%
same,"conversion to 1,5-cz-[Ln(Lig)] from 1,5-cz-Lig, Ce^III",[7]; B: 1 week at 80° C.,0%
same,"conversion to 1,5-cz-[Ln(Lig)] from 1,5-cz-Lig, Dy^III",[7]; B: 1 week at 80° C.,0%
same,"conversion to 1,5-cz-[Ln(Lig)] from 1,5-cz-Lig, Er^III",[7]; B: 1 week at 80° C.,0%
same,"conversion to 1,5-cz-[Ln(Lig)] from 1,5-cz-Lig, Eu^III",[7]; B: 1 week at 80° C.,0%
same,"conversion to 1,5-cz-[Ln(Lig)] from 1,5-cz-Lig, Gd^III",[7]; B: 1 week at 80° C.,0%
same,"conversion to 1,5-cz-[Ln(Lig)] from 1,5-cz-Lig, Ho^III",[7]; B: 1 week at 80° C.,0%
same,"conversion to 1,5-cz-[Ln(Lig)] from 1,5-cz-Lig, La^III",[7]; B: 1 week at 80° C.,0%
same,"conversion to 1,5-cz-[Ln(Lig)] from 1,5-cz-Lig, Lu^III",[7]; B: 1 week at 80° C.,0%
same,"conversion to 1,5-cz-[Ln(Lig)] from 1,5-cz-Lig, Nd^III",[7]; B: 1 week at 80° C.,0%
same,"conversion to 1,5-cz-[Ln(Lig)] from 1,5-cz-Lig, Pr^III",[7]; B: 1 week at 80° C.,0%
same,"conversion to 1,5-cz-[Ln(Lig)] from 1,5-cz-Lig, Sm^III",[7]; B: 1 week at 80° C.,0%
same,"conversion to 1,5-cz-[Ln(Lig)] from 1,5-cz-Lig, Tb^III",[7]; B: 1 week at 80° C.,0%
same,"conversion to 1,5-cz-[Ln(Lig)] from 1,5-cz-Lig, Tm^III",[7]; B: 1 week at 80° C.,0%
same,"conversion to 1,5-cz-[Ln(Lig)] from 1,5-cz-Lig, Yb^III",[7]; B: 1 week at 80° C.,0%
same,"conversion to 1,5-cz-[Ln(Lig)] from 1,5-cz-Lig, Gd^III",[7]; C: ~6 months at 80° C.,0%
same,"conversion to 1,5-cz-[Ln(Lig)] from 1,5-cz-Lig, Lu^III",[7]; C: ~6 months at 80° C.,0%
same,"conversion to 1,5-cz-[Ln(Lig)] from 1,5-cz-Lig, Cu^II",[8]; A: 1 min at RT,43%
same,"conversion to 1,5-cz-[Ln(Lig)] from 1,5-cz-Lig, Pb^II",[8]; A: 1 min at RT,98%
same,"conversion to 1,5-cz-[Ln(Lig)] from 1,5-cz-Lig, Ca^II",[8]; B: 1 hour at RT,0%
same,"conversion to 1,5-cz-[Ln(Lig)] from 1,5-cz-Lig, Cd^II",[8]; B: 1 hour at RT,58%
same,"conversion to 1,5-cz-[Ln(Lig)] from 1,5-cz-Lig, Cu^II",[8]; B: 1 hour at RT,47%
same,"conversion to 1,5-cz-[Ln(Lig)] from 1,5-cz-Lig, Ni^II",[8]; B: 1 hour at RT,0%
same,"conversion to 1,5-cz-[Ln(Lig)] from 1,5-cz-Lig, Pb^II",[8]; B: 1 hour at RT,99%
same,"conversion to 1,5-cz-[Ln(Lig)] from 1,5-cz-Lig, Zn^II",[8]; B: 1 hour at RT,59%
same,"conversion to 1,5-cz-[Ln(Lig)] from 1,5-cz-Lig, Bi^III",[8]; B: 1 hour at RT,2%
same,"conversion to 1,5-cz-[Ln(Lig)] from 1,5-cz-Lig, Ca^II",[8]; C: 1 hour at 80° C.,23%
same,"conversion to 1,5-cz-[Ln(Lig)] from 1,5-cz-Lig, Cd^II",[8]; C: 1 hour at 80° C.,98%
same,"conversion to 1,5-cz-[Ln(Lig)] from 1,5-cz-Lig, Cu^II",[8]; C: 1 hour at 80° C.,49%
same,"conversion to 1,5-cz-[Ln(Lig)] from 1,5-cz-Lig, Ni^II",[8]; C: 1 hour at 80° C.,9%
same,"conversion to 1,5-cz-[Ln(Lig)] from 1,5-cz-Lig, Pb^II",[8]; C: 1 hour at 80° C.,98%
same,"conversion to 1,5-cz-[Ln(Lig)] from 1,5-cz-Lig, Zn^II",[8]; C: 1 hour at 80° C.,91%
same,"conversion to 1,5-cz-[Ln(Lig)] from 1,5-cz-Lig, Bi^III",[8]; C: 1 hour at 80° C.,96%
same,"conversion to 1,5-cz-[Ln(Lig)] from 1,5-cz-Lig, Ba^II",[8]; D: 1 week at 80° C.,0%
same,"conversion to 1,5-cz-[Ln(Lig)] from 1,5-cz-Lig, Ca^II",[8]; D: 1 week at 80° C.,96%
same,"conversion to 1,5-cz-[Ln(Lig)] from 1,5-cz-Lig, Cd^II",[8]; D: 1 week at 80° C.,99%
same,"conversion to 1,5-cz-[Ln(Lig)] from 1,5-cz-Lig, Cu^II",[8]; D: 1 week at 80° C.,78%
same,"conversion to 1,5-cz-[Ln(Lig)] from 1,5-cz-Lig, Ga^II",[8]; D: 1 week at 80° C.,0%
same,"conversion to 1,5-cz-[Ln(Lig)] from 1,5-cz-Lig, In^III",[8]; D: 1 week at 80° C.,0%
same,"conversion to 1,5-cz-[Ln(Lig)] from 1,5-cz-Lig, Ni^II",[8]; D: 1 week at 80° C.,11%
same,"conversion to 1,5-cz-[Ln(Lig)] from 1,5-cz-Lig, Pb^II",[8]; D: 1 week at 80° C.,98%
same,"conversion to 1,5-cz-[Ln(Lig)] from 1,5-cz-Lig, Sc^III",[8]; D: 1 week at 80° C.,0%
same,"conversion to 1,5-cz-[Ln(Lig)] from 1,5-cz-Lig, Sr^II",[8]; D: 1 week at 80° C.,0%
same,"conversion to 1,5-cz-[Ln(Lig)] from 1,5-cz-Lig, Y^III",[8]; D: 1 week at 80° C.,0%
same,"conversion to 1,5-cz-[Ln(Lig)] from 1,5-cz-Lig, Zn^II",[8]; D: 1 week at 80° C.,99%
same,"conversion to 1,5-cz-[Ln(Lig)] from 1,5-cz-Lig, Bi^III",[8]; D: 1 week at 80° C.,90%
C#Cc1cccc(CN2CC[N@]3CCN(Cc4cc(-c5ccccc5)cc(CN=[N+]=[N-])n4)CC[N@@](CC2)CC(=O)[O][Gd][O]C(=O)C3)n1 [TD451],relaxivity,[2],2.39 mM⁻¹ s⁻¹
